Data taken from ChEMBL document CHEMBL1201862, “PubChem BioAssay data set” (2004).
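Each compound was tested at five concentrations against cells in 96-well plates for 48 hours. The concentration for 50% growth inhibition is given as GI50.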 Active and inactive are the calls of the source. Cut-off read from the data, not from the text of the source: active = GI50 up to about 1.1 µM and inactive = higher. Where a SMILES comes first, the peptide text is derived from it. [ ]: non-standard residue; d: D form. The star is where a group is joined. ξ: configuration not given here. ξD = NC(CC(=O)O)C(=O)O; Ac3c = NC1(C(=O)O)CC1; Boc = CC(C)(C)OC(=O)*; OBn = c1ccc(CO*)cc1

Tests used:
Experiment in all cases: NCI anticancer screen, dose series, 48 h
A549 = test system: A549
BT-549 = test system: BT-549
CCRF-CEM = test system: CCRF-CEM
EKVX = test system: EKVX
HCC 2998 = test system: HCC 2998
HL-60 = test system: HL-60
IGROV-1 = test system: IGROV-1
MCF7 = test system: MCF7
MOLT-4 = test system: MOLT-4
NCI-H23 = test system: NCI-H23
NCI/ADR-RES = test system: NCI/ADR-RES
OVCAR-3 = test system: OVCAR-3
OVCAR-8 = test system: OVCAR-8
PC-3 = test system: PC-3
SK-OV-3 = test system: SK-OV-3
SNB-75 = test system: SNB-75
SW-620 = test system: SW-620
HOP-92 = test system: HOP-92
SF-539 = test system: SF-539
SR = test system: SR

SMILES	GI50 (A549)	GI50 (BT-549)	GI50 (CCRF-CEM)	GI50 (EKVX)	GI50 (HCC 2998)	GI50 (HL-60)	GI50 (IGROV-1)	GI50 (MCF7)	GI50 (MOLT-4)	GI50 (NCI-H23)	GI50 (NCI/ADR-RES)	GI50 (OVCAR-3)	GI50 (OVCAR-8)	GI50 (PC-3)	GI50 (SK-OV-3)	GI50 (SNB-75)	GI50 (SW-620)	GI50 (HOP-92)	GI50 (SF-539)	GI50 (SR)
NCCNC(=S)S	> 100 µM (inactive)	> 100 µM (inactive)	22.4 µM (inactive)	> 100 µM (inactive)	> 100 µM (inactive)	44.7 µM (inactive)	> 100 µM (inactive)	> 100 µM (inactive)	34.9 µM (inactive)	> 100 µM (inactive)	> 100 µM (inactive)	52.7 µM (inactive)	57.5 µM (inactive)	> 100 µM (inactive)	> 100 µM (inactive)	> 100 µM (inactive)	59.2 µM (inactive)	–	–	–
N=C(N)C1CN(CCc2c[nH]cn2)C(=O)NC1=O (stereo unspecified)	> 100 µM (inactive)	> 100 µM (inactive)	> 100 µM (inactive)	> 100 µM (inactive)	> 100 µM (inactive)	> 100 µM (inactive)	> 100 µM (inactive)	> 100 µM (inactive)	> 100 µM (inactive)	> 100 µM (inactive)	–	> 100 µM (inactive)	> 100 µM (inactive)	> 100 µM (inactive)	> 100 µM (inactive)	> 100 µM (inactive)	> 100 µM (inactive)	> 100 µM (inactive)	> 100 µM (inactive)	> 100 µM (inactive)
CCOP(=O)(/C=C\n1cnc2c(=O)n(C(C)=O)c(N)nc21)OCC	> 100 µM (inactive)	> 100 µM (inactive)	> 100 µM (inactive)	> 100 µM (inactive)	–	> 100 µM (inactive)	> 100 µM (inactive)	> 100 µM (inactive)	> 100 µM (inactive)	> 100 µM (inactive)	> 100 µM (inactive)	> 100 µM (inactive)	> 100 µM (inactive)	22.5 µM (inactive)	> 100 µM (inactive)	> 100 µM (inactive)	> 100 µM (inactive)	–	> 100 µM (inactive)	–
Cc1nn(C(=O)Cc2ccccc2)c2c1C(c1ccc(/C=C/c3ccccc3)cc1)SC(=N)N2 (stereo unspecified)	> 100 µM (inactive)	> 100 µM (inactive)	> 100 µM (inactive)	> 100 µM (inactive)	> 100 µM (inactive)	> 100 µM (inactive)	> 100 µM (inactive)	> 100 µM (inactive)	> 100 µM (inactive)	> 100 µM (inactive)	–	–	> 100 µM (inactive)	> 100 µM (inactive)	> 100 µM (inactive)	> 100 µM (inactive)	> 100 µM (inactive)	–	> 100 µM (inactive)	–
CCC1(COC(NC(=O)c2ccccc2)(C(F)(F)F)C(F)(F)F)COC1	> 100 µM (inactive)	> 100 µM (inactive)	> 100 µM (inactive)	> 100 µM (inactive)	> 100 µM (inactive)	> 100 µM (inactive)	> 100 µM (inactive)	–	52.4 µM (inactive)	> 100 µM (inactive)	> 100 µM (inactive)	–	> 100 µM (inactive)	> 100 µM (inactive)	> 100 µM (inactive)	> 100 µM (inactive)	> 100 µM (inactive)	–	> 100 µM (inactive)	> 100 µM (inactive)
CSc1nc(=S)[nH]c2c1c(C)nn2-c1ccccc1	31.3 µM (inactive)	19.7 µM (inactive)	10.6 µM (inactive)	18.1 µM (inactive)	30.6 µM (inactive)	28.1 µM (inactive)	–	17.8 µM (inactive)	14.2 µM (inactive)	17.6 µM (inactive)	–	35.5 µM (inactive)	–	25.7 µM (inactive)	24.8 µM (inactive)	–	34.5 µM (inactive)	7.1 µM (inactive)	28.1 µM (inactive)	11.2 µM (inactive)
COCOc1ccc(C(=O)C(C)c2ccc(OCOC)cc2OCOC)c(O)c1 (stereo unspecified)	97.3 µM (inactive)	60.5 µM (inactive)	83.4 µM (inactive)	83.6 µM (inactive)	> 100 µM (inactive)	30.9 µM (inactive)	> 100 µM (inactive)	68.2 µM (inactive)	42.6 µM (inactive)	60.8 µM (inactive)	–	–	> 100 µM (inactive)	48.9 µM (inactive)	> 100 µM (inactive)	33.5 µM (inactive)	> 100 µM (inactive)	48.1 µM (inactive)	> 100 µM (inactive)	40.7 µM (inactive)
CC(Nc1ccc(Cl)c(Cl)c1)c1ccncc1 (stereo unspecified)	10.5 µM (inactive)	26.1 µM (inactive)	20.7 µM (inactive)	39.9 µM (inactive)	–	–	25.4 µM (inactive)	22.4 µM (inactive)	19.5 µM (inactive)	31.4 µM (inactive)	28.1 µM (inactive)	26.8 µM (inactive)	21.8 µM (inactive)	19.4 µM (inactive)	11.4 µM (inactive)	23 µM (inactive)	20.7 µM (inactive)	18.9 µM (inactive)	30.8 µM (inactive)	–
CCC1(CC)C(=O)N(C(=O)c2cc(OC)c(OC)c(OC)c2)N(C(=O)c2cc(OC)c(OC)c(OC)c2)C1=O	> 50 µM (inactive)	> 50 µM (inactive)	> 50 µM (inactive)	> 50 µM (inactive)	> 50 µM (inactive)	28.5 µM (inactive)	> 50 µM (inactive)	> 50 µM (inactive)	–	> 50 µM (inactive)	> 50 µM (inactive)	> 50 µM (inactive)	> 50 µM (inactive)	> 50 µM (inactive)	> 50 µM (inactive)	42.9 µM (inactive)	> 50 µM (inactive)	–	> 50 µM (inactive)	–
CCOC(=O)c1nc2ccccc2nc1Nc1ccc(OC)c(OC)c1	> 100 µM (inactive)	> 100 µM (inactive)	> 100 µM (inactive)	18.7 µM (inactive)	> 100 µM (inactive)	> 100 µM (inactive)	> 100 µM (inactive)	> 100 µM (inactive)	> 100 µM (inactive)	> 100 µM (inactive)	> 100 µM (inactive)	> 100 µM (inactive)	–	–	> 100 µM (inactive)	21.9 µM (inactive)	–	62.7 µM (inactive)	> 100 µM (inactive)	> 100 µM (inactive)
CN(C)CCNC(=O)c1ccc2nc3c(nc2c1)C(=O)c1ccccc1-3	> 100 µM (inactive)	21.7 µM (inactive)	9.75 µM (inactive)	> 100 µM (inactive)	86.9 µM (inactive)	19.1 µM (inactive)	38.9 µM (inactive)	27.9 µM (inactive)	12.9 µM (inactive)	48.5 µM (inactive)	–	55 µM (inactive)	36.5 µM (inactive)	45 µM (inactive)	> 100 µM (inactive)	30.5 µM (inactive)	34.2 µM (inactive)	57.4 µM (inactive)	60.8 µM (inactive)	18.1 µM (inactive)
CCCCCC#CCOC(=O)C(=[N+]=[N-])P(=O)(c1ccccc1)c1ccccc1	> 10 µM (inactive)	> 10 µM (inactive)	–	> 10 µM (inactive)	> 10 µM (inactive)	> 10 µM (inactive)	> 10 µM (inactive)	> 10 µM (inactive)	> 10 µM (inactive)	> 10 µM (inactive)	–	> 10 µM (inactive)	> 10 µM (inactive)	> 10 µM (inactive)	> 10 µM (inactive)	> 10 µM (inactive)	> 10 µM (inactive)	> 10 µM (inactive)	> 10 µM (inactive)	> 10 µM (inactive)
COc1cccc2c1C(=O)c1c(O)c3c(c(O)c1C2=O)C[C@@](O)(/C(C)=N\O)C[C@@H]3OC1CC(N)C(O)C(C)O1 (stereo partly specified)	0.968 µM (active)	1.72 µM (inactive)	0.187 µM (active)	3.19 µM (inactive)	0.834 µM (active)	0.218 µM (active)	0.76 µM (active)	0.289 µM (active)	0.0661 µM (active)	1.26 µM (inactive)	–	1.45 µM (inactive)	1.15 µM (inactive)	1.36 µM (inactive)	2.23 µM (inactive)	0.501 µM (active)	0.504 µM (active)	1.08 µM (active)	0.931 µM (active)	0.0615 µM (active)
Cc1cc(S(=O)(=O)O)ccc1/N=N/c1c(O)ccc2ccccc12	> 100 µM (inactive)	> 100 µM (inactive)	> 100 µM (inactive)	> 100 µM (inactive)	–	> 100 µM (inactive)	> 100 µM (inactive)	–	> 100 µM (inactive)	> 100 µM (inactive)	> 100 µM (inactive)	> 100 µM (inactive)	> 100 µM (inactive)	> 100 µM (inactive)	> 100 µM (inactive)	> 100 µM (inactive)	> 100 µM (inactive)	> 100 µM (inactive)	–	–
Cc1nnc2sc(NN)nn12	> 100 µM (inactive)	> 100 µM (inactive)	41.4 µM (inactive)	> 100 µM (inactive)	–	–	> 100 µM (inactive)	> 100 µM (inactive)	17.5 µM (inactive)	> 100 µM (inactive)	> 100 µM (inactive)	> 100 µM (inactive)	> 100 µM (inactive)	> 100 µM (inactive)	> 100 µM (inactive)	> 100 µM (inactive)	> 100 µM (inactive)	–	> 100 µM (inactive)	–
COC(=O)C1(NC(=O)C(CC(=O)OCc2ccccc2)NC(=O)OC(C)(C)C)CC1 (stereo unspecified) (Boc-[ξD](OBn)-[Ac3c]-OMe)	> 100 µM (inactive)	> 100 µM (inactive)	> 100 µM (inactive)	> 100 µM (inactive)	–	–	> 100 µM (inactive)	> 100 µM (inactive)	> 100 µM (inactive)	> 100 µM (inactive)	> 100 µM (inactive)	> 100 µM (inactive)	> 100 µM (inactive)	> 100 µM (inactive)	19.6 µM (inactive)	> 100 µM (inactive)	> 100 µM (inactive)	> 100 µM (inactive)	> 100 µM (inactive)	–
